Earlier results, collected in patent publication US20080081067A1, “SUSTAINED RELEASE PHARMACEUTICAL COMPOSITIONS OF VENLAFAXINE AND PROCESS FOR PREPARATION THEREOF” (priority 2006, published 2008).

Test system: monoamine oxidase
Conditions: background statement

SMILES: COc1ccc(C(CN(C)C)C2(O)CCCCC2)cc1 (stereo not shown) [Venlafaxine]
- inhibitory activity on monoamine oxidase: no inhibitory activity
